Where “and” joins values, the source holds several entries; their conditions need not be identical. Identical values can stand only once.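 The compound was tested at five concentrations on cells cultured in 96-well plates, with a 48-hour exposure period. GI50 marks 50% less growth. TGI is the concentration that stops growth completely.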
Tests used:
Assay in all cases: DTP human tumour cell line panel, 48 h
A549 NSCLC = system: A549 NSCLC
MDA-MB-435 = system: MDA-MB-435
HCC-2998 colon = system: HCC-2998 colon
DU-145 prostate = system: DU-145 prostate
SW-620 colon = system: SW-620 colon
RXF 393 renal = system: RXF 393 renal
SK-MEL-28 melanoma = system: SK-MEL-28 melanoma
BT-549 breast = system: BT-549 breast
OVCAR-8 ovarian = system: OVCAR-8 ovarian
NCI/ADR-RES ovarian = system: NCI/ADR-RES ovarian

| SMILES | TGI (A549 NSCLC) | TGI (MDA-MB-435) | TGI (HCC-2998 colon) | TGI (DU-145 prostate) | TGI (SW-620 colon) | TGI (RXF 393 renal) | TGI (SK-MEL-28 melanoma) | TGI (BT-549 breast) | TGI (OVCAR-8 ovarian) | TGI (NCI/ADR-RES ovarian) | GI50 (A549 NSCLC) | GI50 (MDA-MB-435) | GI50 (HCC-2998 colon) | GI50 (DU-145 prostate) | GI50 (SW-620 colon) | GI50 (RXF 393 renal) | GI50 (SK-MEL-28 melanoma) | GI50 (BT-549 breast) | GI50 (OVCAR-8 ovarian) | GI50 (NCI/ADR-RES ovarian) |
| --- | --- | --- | --- | --- | --- | --- | --- | --- | --- | --- | --- | --- | --- | --- | --- | --- | --- | --- | --- | --- |
| CN1c2ccccc2S(=O)(=O)n2c(CCc3ccccc3)nnc21 | > 100 µM | > 100 µM | > 100 µM | > 100 µM | > 100 µM | > 100 µM | > 100 µM | > 100 µM | > 100 µM | > 100 µM | – | – | – | – | – | – | – | – | – | – |
| COc1ccc(/C=C\c2cc(OC)c(OC)c(OC)c2)c(NS(=O)(=O)c2ccc(Cl)cc2)c1O | > 100 µM | 0.0525 µM | 16.4 µM | > 100 µM | > 100 µM | 10.7 µM | 31.6 µM | 34.5 µM | 80.6 µM | 22.4 µM | 0.27 µM | 0.0222 µM | 0.429 µM | 0.2 µM | 0.0694 µM | 0.0355 µM | 0.084 µM | 0.353 µM | 0.294 µM | 0.263 µM |
| COc1ccc(NC(=O)n2nc(/C=C\c3ccc(O)c(OC)c3)cc2/C=C\c2ccc(O)c(OC)c2)cc1 | 97.9 µM | 4.68 µM | > 100 µM | 24.6 µM | 61.6 µM | 8.87 µM | 92.7 µM | 29.5 µM | 59.9 µM | > 100 µM | 5.5 µM | 1.25 µM | 5.78 µM | 3.99 µM | 5.51 µM | 3.02 µM | 3.52 µM | 2.49 µM | 5.32 µM | 4.28 µM |
| CCn1c(=O)c2c3ccc(OC(C)=O)cc3[nH]c2c2ccc(OC(C)=O)cc21 | > 100 µM | > 100 µM | 54.4 µM | 49.1 µM | > 100 µM | > 100 µM | > 100 µM | > 100 µM | > 100 µM | > 100 µM | – | – | – | – | – | – | – | – | – | – |
| CC(=O)c1cc(-c2ccccc2N)n(-c2ccc3c(c2)OCO3)c1C | > 100 µM | 0.434 µM | 16.3 µM | > 100 µM | > 100 µM | 0.681 µM | > 73.9 µM | 9.9 µM | > 100 µM | – | 0.313 µM | 0.163 µM | 0.304 µM | 0.0408 µM | 0.184 µM | 0.208 µM | 2.34 µM | 0.575 µM | 0.156 µM | 0.211 µM |
| COC(=O)c1ccc2c(c1)C(=O)c1c-2n(CCCN)c(=O)c2cc(OC)c(OC)cc12 | 27.2 µM | 46.2 µM | 25.9 µM | 22.8 µM | 24.4 µM | > 52 µM | 35.2 µM | 35.4 µM | > 55 µM | > 100 µM | 7.49 µM | 21.6 µM | 11.9 µM | 7.89 µM | 7.9 µM | 21.6 µM | 17.9 µM | 17.1 µM | 14.5 µM | 42.6 µM |
| C[C@]12CC[C@H]3[C@@H](CC[C@]4(O)C[C@@H](O)CC[C@]34CO)[C@@]1(O)CC[C@@H]2C1=CC(=O)OC1 | 1.74 µM | 9.45 µM | 67.9 µM | 2.24 µM | > 27 µM | 1.58 µM | 22.5 µM | 3.68 µM | 3.82 µM | 3.8 µM | – | – | – | – | – | – | – | – | – | – |
| CCCCN(CCCC)CCc1c(C)cc(C)c(CCN(CCCC)CCCC)c1O | > 100 µM | 53.2 µM | 32.6 µM | > 100 µM | > 100 µM | 7.23 µM | > 100 µM | 6.87 µM | > 100 µM | 88.1 µM | 3 µM | 3.11 µM | 3.17 µM | 3.76 µM | 2.88 µM | 2.4 µM | 3.97 µM | 2.78 µM | 3.28 µM | 3.63 µM |
| Nc1cc2[nH]cnc2c(=O)[nH]1 | > 300 µM | > 300 µM | > 300 µM | > 300 µM | > 300 µM | > 300 µM | > 300 µM | > 300 µM | > 300 µM | > 300 µM | – | – | – | – | – | – | – | – | – | – |
| COc1cc2c(c(OC)c1OC)-c1ccc(O)c(=O)cc1[C@@H](NC(C)=O)CC2 | 89.3 µM and > 100 µM | > 100 µM and 47.4 µM | > 100 µM and 34.4 µM | > 100 µM | > 100 µM and 82.5 µM | > 100 µM | > 100 µM | > 100 µM and 39.4 µM | > 100 µM and 35.7 µM | > 100 µM and 36.2 µM | 10.1 µM | 14.3 µM | 7.95 µM | 9.82 µM | 7 µM | 14.6 µM | 7.48 µM | 24 µM | 3.77 µM | 4.6 µM |
| COc1cc2c3c(c1OC)C1(C=CC(=O)C=C1)CC3NCC2 (centres undefined) | > 100 µM | > 100 µM | > 100 µM | > 100 µM | > 100 µM | > 100 µM | > 100 µM | > 100 µM | > 100 µM | > 100 µM | – | – | – | – | – | – | – | – | – | – |
| CCCCNC(=O)Oc1ccc(/C(=C(/CC)Cc2ccccc2)c2ccc(OCCN3CCCCCC3)cc2)cc1 | > 100 µM | 34.3 µM | 38.8 µM | > 100 µM | 42.5 µM | 32.1 µM | 33.1 µM | > 100 µM | 36.6 µM | > 100 µM | 32.4 µM | 17.2 µM | 18.8 µM | 41.7 µM | 20.5 µM | 17.3 µM | 16.5 µM | 46.5 µM | 19.1 µM | 42.1 µM |
| COc1cc(/C=C2\CC3C4CC=C5C[C@@H](O)CC[C@]5(C)C4CC[C@]3(C)C2=O)ccc1OCCCn1ccnc1 (some centres undefined) | 56.4 µM | 34 µM | 28.3 µM | 29.6 µM | 52.9 µM | 34.8 µM | > 100 µM | 44.3 µM | 47.5 µM | 31.7 µM | 17.1 µM | 16.8 µM | 14.8 µM | 15.4 µM | 24.4 µM | 12.6 µM | 28.9 µM | 16.5 µM | 17.1 µM | 15.4 µM |
| CC(=O)c1cccc(-c2cccc(-c3ccn(CCN4CCOCC4)n3)c2)c1 | > 20 µM | > 20 µM | > 20 µM | > 20 µM | > 20 µM | > 20 µM | > 20 µM | > 20 µM | > 20 µM | > 20 µM | > 20 µM | > 20 µM | > 20 µM | > 20 µM | > 20 µM | > 20 µM | > 20 µM | > 20 µM | > 20 µM | > 20 µM |
